Test results: patent US12391648B2, “Pyridyloxy thioester derivative and preparation method therefor, herbicidal composition, and application” (Qingdao Kingagroot Chemical Compound Co., Ltd., priority 2018, dated 2025)

Columns and labels:
Assay in all cases: Post-emergence test experiment (Table 3, 1000 g/ha)
Format in all cases: in vivo
Conditions in all cases: post-emergence spray, after 3 weeks, fresh weight inhibition
Abutilon theophrasti = system: Abutilon theophrasti
Method in brief: (§1)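 Activity graded levels 0-5 by fresh-weight inhibition (level 5 above 85%, level 0 below 5%), assessed 3 weeks after treatment. Plants grown in greenhouse pots were sprayed post-emergence at 2-3 leaves using acetone/tween-80 solutions with methyl oleate synergist (1.5 L/ha).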

Digitaria sanguinalis = system: Digitaria sanguinalis
Method in brief: as §1

Galium spurium = system: Galium spurium
Method in brief: as §1

Leptochloa chinensis = system: Leptochloa chinensis
Method in brief: as §1

Monochoria vaginalis = system: Monochoria vaginalis
Method in brief: as §1

Setaria viridis = system: Setaria viridis
Method in brief: as §1

SMILES	Activity level (growth inhibition rate) Abutilon theophrasti (Abutilon theophrasti)	Activity level (growth inhibition rate) Digitaria sanguinalis (Digitaria sanguinalis)	Activity level (growth inhibition rate) Galium spurium (Galium spurium)	Activity level (growth inhibition rate) Leptochloa chinensis (Leptochloa chinensis)	Activity level (growth inhibition rate) Monochoria Vaginalis (Monochoria vaginalis)	Activity level (growth inhibition rate) Setaria viridis (Setaria viridis)
CCC(CC)SC(=O)C(C)Oc1nc(F)c(Cl)c(N)c1Cl (stereo not drawn) [Compound 150]	5 (Level 5: the growth inhibition rate is greater than 85%)	5 (Level 5: the growth inhibition rate is greater than 85%)	5 (Level 5: the growth inhibition rate is greater than 85%)	5 (Level 5: the growth inhibition rate is greater than 85%)	5 (Level 5: the growth inhibition rate is greater than 85%)	5 (Level 5: the growth inhibition rate is greater than 85%)
CCCCC(C)SC(=O)C(C)Oc1nc(F)c(Cl)c(N)c1Cl (stereo not drawn) [Compound 151]	5 (Level 5: the growth inhibition rate is greater than 85%)	5 (Level 5: the growth inhibition rate is greater than 85%)	5 (Level 5: the growth inhibition rate is greater than 85%)	5 (Level 5: the growth inhibition rate is greater than 85%)	5 (Level 5: the growth inhibition rate is greater than 85%)	5 (Level 5: the growth inhibition rate is greater than 85%)
CCCC(C)CSC(=O)C(C)Oc1nc(F)c(Cl)c(N)c1Cl (stereo not drawn) [Compound 152]	5 (Level 5: the growth inhibition rate is greater than 85%)	5 (Level 5: the growth inhibition rate is greater than 85%)	5 (Level 5: the growth inhibition rate is greater than 85%)	5 (Level 5: the growth inhibition rate is greater than 85%)	5 (Level 5: the growth inhibition rate is greater than 85%)	5 (Level 5: the growth inhibition rate is greater than 85%)
CCC(C)CCSC(=O)C(C)Oc1nc(F)c(Cl)c(N)c1Cl (stereo not drawn) [Compound 153]	5 (Level 5: the growth inhibition rate is greater than 85%)	5 (Level 5: the growth inhibition rate is greater than 85%)	5 (Level 5: the growth inhibition rate is greater than 85%)	5 (Level 5: the growth inhibition rate is greater than 85%)	5 (Level 5: the growth inhibition rate is greater than 85%)	5 (Level 5: the growth inhibition rate is greater than 85%)
CC(C)CCCSC(=O)C(C)Oc1nc(F)c(Cl)c(N)c1Cl (stereo not drawn) [Compound 154]	5 (Level 5: the growth inhibition rate is greater than 85%)	5 (Level 5: the growth inhibition rate is greater than 85%)	5 (Level 5: the growth inhibition rate is greater than 85%)	5 (Level 5: the growth inhibition rate is greater than 85%)	5 (Level 5: the growth inhibition rate is greater than 85%)	5 (Level 5: the growth inhibition rate is greater than 85%)
CC(Oc1nc(F)c(Cl)c(N)c1Cl)C(=O)SCC#N (stereo not drawn) [Compound 155]	5 (Level 5: the growth inhibition rate is greater than 85%)	5 (Level 5: the growth inhibition rate is greater than 85%)	5 (Level 5: the growth inhibition rate is greater than 85%)	5 (Level 5: the growth inhibition rate is greater than 85%)	5 (Level 5: the growth inhibition rate is greater than 85%)	5 (Level 5: the growth inhibition rate is greater than 85%)
